Patent publication US20070116781A1, “Hydrogen Cyanamide Pesticide Formulations” (priority 2005, published 2007)

Legend:
[1] = tested on: crabgrass; assay: Herbicidal activity, phosphate-free cyanamide and propionic acid, post-emergence, uncovered pots; assay type: in vivo, Digitaria sanguinalis
Excerpt: (§1) The procedures in this example differed from those of Example 2, however, by the use of hydrogen cyanamide crystals free of phosphate ion to prepare the aqueous hydrogen cyanamide solution, by the use of post-emergence application, and by the omission of any covering of the pots during any part of the test. Observations were made for total weed growth, and individual observations were also made for yellow nutsedge, crabgrass, sicklepod, and momingglory. Stock solutions of hydrogen cyanamide at 1.25% by weight and propionic acid at 5.0% by weight, both in water, were prepared as before, except that the hydrogen cyanamide solution, as noted above, was prepared by dissolving hydrogen cyanamide crystals in water in the absence of phosphate ion. […] The weeds were allowed to grow for three weeks before the treatment chemicals were applied. […] Data analyses were performed in the same manner as Examples 1 and 2. Table IX lists the results in weeds per pot for all weeds, Table X for yellow nutsedge, Table XI for crabgrass, Table XII for sicklepod, and Table XIII for morningglory, all both with propionic acid alone at various application […]

[2] = tested on: reniform nematodes; assay: Nematicidal activity in covered pots of naturally infested silt loam, soybean planted after 12 days; assay type: in vivo, Rotylenchulus reniformus; details: C2H5CO2H 250 mg/kg soil
Method: (§2) In this study, the soil was naturally infested with four species of nematodes, two of which were deleterious and two beneficial, and observations were made of both the nematode survival and the growth of the soybean plants.
(§3) Stock solutions of hydrogen cyanamide at 1.0% by weight and propionic acid at 5.0% by weight, both in water, were prepared, the hydrogen cyanamide from a phosphate-buffered 50% aqueous solution. Planting pots measuring 10 cm in diameter, each containing 1 kg of soil, were used. The soil was silt loam from a cotton field, pH 6.2, CEC<10 meq/100 g soil, organic matter<1.0%. The treatment chemicals were combined in various dilutions such that 100 mL of the combined dilutions contained the desired amount of each chemical for each test. The combined dilutions were then applied to the soil surface in each pot, at 100 mL of combined dilution per pot. The dilutions were selected to achieve target application rates expressed in milligrams of the treatment chemical per kilogram of soil, with 1 milligram of treatment chemical per kilogram of soil being approximately equal to 2 kilograms of the chemical per hectare of soil or 2 pounds of the chemical per acre of soil.
(§4) Immediately after the treatment chemicals were applied, each pot was covered by a thick (1.5 mil), clear, low-density polyethylene bag. After twelve days, the bags were removed and soil samples were taken from each pot for nematological analysis by the salad bowl technique of Rodriguez-Kabana, R., and M. H. Pope, Nematropica, 11: 175-186 (1981). The results of these analyses are listed in Table I as pre-plant test results. The results for the two deleterious nematodes are also shown as plots of the number of nematodes vs. the hydrogen cyanamide application rate in FIGS. 1 and 2.
(§5) After the polyethylene bags were removed, each pot was planted with Hutcheson soybean seeds at 5 seeds per pot, and the seeds were allowed to germinate and the plants to grow for 45 days. The resulting plants were then removed from the pots, the root systems were washed, and the number of plants in each pot was determined. The weights of both fresh shoots and roots were also determined as well as the shoot height and the relative health of the root system, using a subjective index. Soil samples were also collected, and the soil and roots were incubated to determine nematode populations. Treatments were arranged in randomized complete block design with seven replications per treatment, and statistical evaluation of the data was performed with analyses of variance (ANOVA) and standard regression procedures. Fischer's Least Significant Difference at p 0.05 was calculated when appropriate. The results of these tests are listed as final test results in Tables II, III, and IV, with nematode populations in the soil listed in Table II, the nematode populations in the root systems in Table III, and the plant and root parameters of the soybean shoots in Table IV.

[3] = tested on: all weeds; assay: Herbicidal activity, phosphate-free cyanamide and propionic acid, post-emergence, uncovered pots; assay type: in vivo
Excerpt: as §1

[4] = tested on: yellow nutsedge; assay: as above; assay type: in vivo, Cyperus esculentus
Excerpt: as §1

[5] = tested on: spiral nematodes; assay: Nematicidal activity in covered pots of naturally infested silt loam, soybean planted after 12 days; assay type: in vivo, Helicotylenchus dihystera; details: C2H5CO2H 250 mg/kg soil
Method: as §2, §3, §4, §5

[6] = tested on: sicklepod; assay: Herbicidal activity, phosphate-free cyanamide and propionic acid, post-emergence, uncovered pots; assay type: in vivo, Senna obtusifolia
Excerpt: The procedures in this example differed from those of Example 2, however, by the use of hydrogen cyanamide crystals free of phosphate ion to prepare the aqueous hydrogen cyanamide solution, by the use of post-emergence application, and by the omission of any covering of the pots during any part of the test. Observations were made for total weed growth, and individual observations were also made for yellow nutsedge, crabgrass, sicklepod, and momingglory. Stock solutions of hydrogen cyanamide at 1.25% by weight and propionic acid at 5.0% by weight, both in water, were prepared as before, except that the hydrogen cyanamide solution, as noted above, was prepared by dissolving hydrogen cyanamide crystals in water in the absence of phosphate ion. […] The weeds were allowed to grow for three weeks before the treatment chemicals were applied. […] Data analyses were performed in the same manner as Examples 1 and 2. Table IX lists the results in weeds per pot for all weeds, Table X for yellow nutsedge, Table XI for crabgrass, Table XII for sicklepod, and Table XIII for morningglory, all both with propionic acid alone at various application rates and with […]

[7] = 6 d after treatment, C2H5CO2H 100 mg/kg soil
[8] = 6 d after treatment, C2H5CO2H 200 mg/kg soil
[9] = 6 d after treatment, C2H5CO2H 300 mg/kg soil
[10] = 6 d after treatment, C2H5CO2H 400 mg/kg soil
[11] = 6 d after treatment, C2H5CO2H 500 mg/kg soil
[12] = 13 d after treatment, C2H5CO2H 100 mg/kg soil
[13] = 13 d after treatment, C2H5CO2H 200 mg/kg soil
[14] = 13 d after treatment, C2H5CO2H 300 mg/kg soil
[15] = 13 d after treatment, C2H5CO2H 400 mg/kg soil
[16] = 13 d after treatment, C2H5CO2H 500 mg/kg soil
[17] = 20 d after treatment, C2H5CO2H 100 mg/kg soil
[18] = 20 d after treatment, C2H5CO2H 200 mg/kg soil
[19] = 20 d after treatment, C2H5CO2H 300 mg/kg soil
[20] = 20 d after treatment, C2H5CO2H 400 mg/kg soil
[21] = 20 d after treatment, C2H5CO2H 500 mg/kg soil
[22] = 12 d after treatment, pre-plant
[23] = 57 d after treatment, 45 d after planting

CCC(=O)O [C2H5CO2H, propionic acid]
Weeds Per Pot: Crabgrass [1, 7]: 9.9 | Weeds Per Pot: Crabgrass [1, 8]: 5.1 | Weeds Per Pot: Crabgrass [1, 9]: 3 | Weeds Per Pot: Crabgrass [1, 10]: 0.6 | Weeds Per Pot: Crabgrass [1, 11]: 0.6 | Weeds Per Pot: Crabgrass [1, 12]: 10.6 | Weeds Per Pot: Crabgrass [1, 13]: 5.4 | Weeds Per Pot: Crabgrass [1, 14]: 3.9 | Weeds Per Pot: Crabgrass [1, 15]: 1.3 | Weeds Per Pot: Crabgrass [1, 16]: 0.7 | Weeds Per Pot: Crabgrass [1, 17]: 11.6 | Weeds Per Pot: Crabgrass [1, 18]: 6 | Weeds Per Pot: Crabgrass [1, 19]: 3.4 | Weeds Per Pot: Crabgrass [1, 20]: 1.3 | Weeds Per Pot: Crabgrass [1, 21]: 1.6 | Surviving Nematodes: Reniform [2, 22]: 280 per 100 mL of soil | Surviving Nematodes: Reniform [2, 23]: 328 per 100 mL of soil | Surviving Nematodes in Root System: Reniform ([2]; 57 d after treatment): 64.7 Per Pot | Weeds Per Pot: All Weeds [3, 7]: 22.4 | Weeds Per Pot: All Weeds [3, 8]: 12.6 | Weeds Per Pot: All Weeds [3, 9]: 5.7 | Weeds Per Pot: All Weeds [3, 10]: 4 | Weeds Per Pot: All Weeds [3, 11]: 3.4 | Weeds Per Pot: All Weeds [3, 12]: 24.4 | Weeds Per Pot: All Weeds [3, 13]: 14.9 | Weeds Per Pot: All Weeds [3, 14]: 8.6 | Weeds Per Pot: All Weeds [3, 15]: 7.6 | Weeds Per Pot: All Weeds [3, 16]: 6.7 | Weeds Per Pot: All Weeds [3, 17]: 25.1 | Weeds Per Pot: All Weeds [3, 18]: 15.9 | Weeds Per Pot: All Weeds [3, 19]: 10 | Weeds Per Pot: All Weeds [3, 20]: 8.4 | Weeds Per Pot: All Weeds [3, 21]: 8 | Herbicidal activity of propionic acid alone ([3]; post-emergence, uncovered pots): demonstrated herbicidal activity on its own | Weeds Per Pot: Yellow Nutsedge [4, 7]: 2.4 | Weeds Per Pot: Yellow Nutsedge [4, 8]: 4 | Weeds Per Pot: Yellow Nutsedge [4, 9]: 1.9 | Weeds Per Pot: Yellow Nutsedge [4, 10]: 3 | Weeds Per Pot: Yellow Nutsedge [4, 11]: 2.1 | Weeds Per Pot: Yellow Nutsedge [4, 12]: 3 | Weeds Per Pot: Yellow Nutsedge [4, 13]: 4.9 | Weeds Per Pot: Yellow Nutsedge [4, 14]: 3.3 | Weeds Per Pot: Yellow Nutsedge [4, 15]: 4.7 | Weeds Per Pot: Yellow Nutsedge [4, 16]: 3.9 | Weeds Per Pot: Yellow Nutsedge [4, 17]: 3.1 | Weeds Per Pot: Yellow Nutsedge [4, 18]: 5.4 | Weeds Per Pot: Yellow Nutsedge [4, 19]: 4.7 | Weeds Per Pot: Yellow Nutsedge [4, 20]: 5.3 | Weeds Per Pot: Yellow Nutsedge [4, 21]: 4.1 | Surviving Nematodes: Spiral [5, 22]: 47 per 100 mL of soil | Surviving Nematodes: Spiral [5, 23]: 12.4 per 100 mL of soil | Surviving Nematodes in Root System: Spiral ([5]; 57 d after treatment): 25.9 Per Pot | Weeds Per Pot: Sicklepod [6, 7]: 3.1 | Weeds Per Pot: Sicklepod [6, 8]: 1.3 | Weeds Per Pot: Sicklepod [6, 9]: 0.9 | Weeds Per Pot: Sicklepod [6, 10]: 0.4 | Weeds Per Pot: Sicklepod [6, 11]: 0.7 | Weeds Per Pot: Sicklepod [6, 12]: 3.6 | Weeds Per Pot: Sicklepod [6, 13]: 2.4 | Weeds Per Pot: Sicklepod [6, 14]: 1.4 | Weeds Per Pot: Sicklepod [6, 15]: 1.6 | Weeds Per Pot: Sicklepod [6, 16]: 2 | Weeds Per Pot: Sicklepod [6, 17]: 3.1 | Weeds Per Pot: Sicklepod [6, 18]: 2.3 | Weeds Per Pot: Sicklepod [6, 19]: 1.9 | Weeds Per Pot: Sicklepod [6, 20]: 1.9 | Weeds Per Pot: Sicklepod [6, 21]: 2.1
